Like-named read-outs stand apart in the source and are kept apart here.
Experiments:
[1] = test system: H3K9me3 oligonucleosomes; test: Chromatin coprecipitation, H3K9me3 oligonucleosomes; type: binding, Xenopus laevis
Experimental: 6.7 nM oligonucleosomes were incubated with 1 μM recombinant protein in 100 μl binding buffer (10 mM triethanolamine (pH 7.5), 150 mM NaCl, 5 mM MgCl2, 0.1 mM EDTA, 0.1% (v/v) Triton-X100) for 1 h on ice. Precipitated chromatin complexes were recovered by centrifugation at 16,100g for 30 min at 4°C. Pellets were washed once with 0.5 ml binding buffer and centrifuged for 15 min at 4 °C. Precipitated material was resuspended in 10 μl 1 × SDS loading buffer and boiled for 5 min before running on SDS–PAGE.
(§1) Supplementary Table 1: Summary of conditions used in the different experiments of this study.
experiment result modification template Temp. [NaCl] [MgCl2]
chromatin Fig. 1e,f; Fig. S1f-h; H3K9me3 oligo- 4 150 5

[2] = test system: mouse fibroblasts; test: Subnuclear distribution of EGFP fusion proteins; type: cell-based; conditions: GFP fusions transiently expressed, n >100
Text: Supplementary Figure 11: Subnuclear distribution of hHP1 β wild type and mutant proteins .
(a) The indicated proteins fused to EGFP were transiently expressed in mouse fibroblast cells.
Representative fluorescence confocal images are shown. DNA was stained with DAPI. Scale bar […]
(b) Quantification of the subnuclear distribution of the hHP1β WT and mutant proteins analyzed as in ( a) by visual inspection. EGFP signal in each transfected cell was categoriz ed into ‘dotted’ (see WT distribution in panel a) or ‘diffuse’ (see distribution of I161A in panel a). n >100 for each condition.
(1 picture or pasted object on this page, not shown here)

[3] = biological target: H3KC9me3 oligonucleosome; test: ITC, H3KC9me3 oligonucleosome; type: binding, Xenopus laevis; conditions: for Kd: read-out: Kd (apparent dissociation constant)
Text: (§2) Mononucleosomes were reconstituted on a 187 bp DNA fragment containing the ‘601' sequence flanked on each site by a linker of 20 bp[55]. Oligonucleosomes were reconstituted on a 12 × 200 bp × 601 template. Plasmids carrying the respective inserts were purified using a Giga kit (Qiagen, Hilden, Germany). Templates for reconstitution were released from plasmids by restriction digest with BsoBI for mononucleosomes and a mix of DdeI, BfuCI, HaeII and EcoRI for oligonucleosomes. To separate vector backbone from DNA used for chromatin assembly stepwise precipitation with polyethylene glycol (PEG) 6000/0.5 M NaCl was carried out (final PEG concentration 2–9% and 20% (w/v)). DNA pellets were washed with 70% (v/v) ethanol and dissolved in water. Double stranded, short, biotinylated DNA linkers were ligated to the DNA template before chromatin reconstitution.
(§3) ITC measurements were performed on a iTC200 calorimeter (Microcal, Malvern, UK) at 25°C in binding buffer (10 mM triethanolamine (pH 7.5), 20 or 150 mM NaCl, 0.1 mM EDTA). Reaction heats were recorded by sequences of 37 injections of 1.8 mM hHP1β, spaced at 120 s intervals, into 250 μl of 60 μM H3 peptides, nucleosomes or oligonucleosomal arrays under constant stirring at 1,000 r.p.m. (injection #1–10: 0.5 μl each; injection #11–32: 1 μl each; injection #33–37: 2 μl each). Heats of dilution, obtained by the titration of hHP1β into buffer, were substracted from raw data before analysis. Raw data were integrated, normalized and the apparent heat change (Δq) of the reaction was plotted against the molecular ratio using the Origin software. For the determination of apparent enthalpy changes (ΔHapp), the molar association constant (KA), and the stoichiometry (n) of the interaction, non-linear least-square fitting of the Δq values was performed by the Origin software using a binding model of one set of identical binding sites.
Figure S4 Hiragami-Hamada et al. […]
Supplementary Figure 4: Quantitative analysis of interaction of hHP1β with H3K9me3-peptides and
(a) ITC measurements of H3K9me3-peptide/hHP1β WT interaction at 20 mM NaCl (left) and 150 mM
NaCl (right). Upper panels, raw data of heat release upon stepwise injection of recombinant protein into
solution of peptide; lower panels, plots of integrated heats of protein injections vs. molar ratio of hHP1β
WT per peptide calculated by MicroCal software. Injections #1-10: 0.5 µl; injections #11-32: 1 µ l;
(b) ITC measurements as in (a) but with H3K C9me3- oligonucleosomal arrays. […]

[4] = test system: H3KC9me3 mononucleosome; test: ITC, H3KC9me3 mononucleosome; type: binding, Xenopus laevis; conditions: for Kd: ITC, pH 7.5, 25°C, read-out: Kd (apparent dissociation constant)
Text: as §2, §3, §1
experiment result modification template Temp. [NaCl] [MgCl2] […]

Substance | specificity for H3K9me3 ([1]; chromatin coprecipitation, 5 mM MgCl2) | dependence of recovery on DNA sequence ([1]; chromatin on linearized pUC18 or 12 x 5S rDNA) | subnuclear distribution [2] | Kd (apparent dissociation constant) ([3]; 20 mM NaCl, pH 7.5, 25°C, NB, not binding) | Kd ([3]; 150 mM NaCl, pH 7.5, 25°C) [µM] | better binding at the higher compared with the lower salt concentration ([4]; 150 mM versus 20 mM NaCl) [fold] | Kd ([4]; 20 mM NaCl) [µM] | Kd ([4]; 150 mM NaCl) [µM] | recovery with H3K9me3 oligonucleosomes ([1]; 6.7 nM oligonucleosomes, 1 μM protein, 150 mM NaCl, 5 mM MgCl2, 1 h on ice) | competition with hHP1β WT for interaction with H3K9me3 oligonucleosomes ([1]; competitive coprecipitation, Supplementary Fig. 2b) | reduced interaction with H3KC9me3 oligonucleosomes compared with hHP1β WT ([3]; 150 mM NaCl) [fold]
hHP1β WT: recombinant human heterochromatin protein 1β (GenBank NM_001127228), 185 aa | coprecipitated only with H3K9me1/2/3 but not H3K9me0 oligonucleosomes | independent of the DNA sequence used for chromatin reconstitution | largely localized to characteristic areas of pericentromeric heterochromatin enriched in H3K9me3 | could not detect any binding | 11 ± 2 | 2.7 | 59 ± 8 | 22 ± 8 |  |  | 
hHP1β I161A: CSD point mutant of hHP1β incapable of dimerization |  |  | diffuse distribution |  | 132 ± 24 |  | 223 ± 30 | 58 ± 17 | neither the monomeric CD alone nor an I161A mutant protein, which is incapable of dimerization[8], were significantly recovered with H3K9me3 oligonucleosomes | ineffective in competing with hHP1β WT | 12
